# Measurements as given in patent US20240190880A1 (THE REGENTS OF THE UNIVERSITY OF MICHIGAN, priority 2021, published 2024).
# Target: T1, ER (Homo sapiens, UniProt P03372)
# T1 construct: host or cells: T47D and MCF7 human breast cancer cells
# T1 sequence (P03372 1-595): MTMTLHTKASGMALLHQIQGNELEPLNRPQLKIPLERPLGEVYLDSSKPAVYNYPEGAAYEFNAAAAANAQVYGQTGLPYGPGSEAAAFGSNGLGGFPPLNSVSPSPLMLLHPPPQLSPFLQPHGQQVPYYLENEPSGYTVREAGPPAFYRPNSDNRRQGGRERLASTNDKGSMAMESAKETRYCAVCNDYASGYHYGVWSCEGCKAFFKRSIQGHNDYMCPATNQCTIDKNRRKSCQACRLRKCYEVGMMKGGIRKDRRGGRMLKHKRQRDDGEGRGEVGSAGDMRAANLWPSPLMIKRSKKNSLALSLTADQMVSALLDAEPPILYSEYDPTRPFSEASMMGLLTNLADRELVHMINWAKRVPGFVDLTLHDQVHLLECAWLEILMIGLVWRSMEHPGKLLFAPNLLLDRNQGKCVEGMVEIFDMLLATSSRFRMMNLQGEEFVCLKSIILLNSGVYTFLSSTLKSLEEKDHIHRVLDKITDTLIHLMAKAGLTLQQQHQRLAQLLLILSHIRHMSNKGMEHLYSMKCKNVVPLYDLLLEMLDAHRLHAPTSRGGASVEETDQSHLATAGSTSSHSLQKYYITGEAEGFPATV
# Assay: ER degradation activity, in-cell western blot analysis in T47D cells
# Type: cell-based
# Conditions: compounds 16 hours, Table A does not say whether T47D or MCF7, read-out: Potency (DC50)
# Summary of the method: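 Human T47D cells (DMEM, 10% FBS) are dosed for 16 h with 0.5% DMSO final and probed with 680- and 800-dye secondary antibodies. Relative ER is calculated against vehicle and untreated wells.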
row,Structure (SMILES),DC50
1,"C[C@@H]1Cc2c([nH]c3ccccc23)[C@@H](c2cnc(N3CC4(CCC(CN5Cc6cc7c(cc6C5)C(=O)N(C5CCC(=O)NC5=O)C7=O)CC4)C3)nc2)N1CC(C)(C)F (stereo partly drawn) [E 471, 2-(2,6-dioxopiperidin-3-yl)-6-((2-(5-((1R,3R)-2-(2-fluoro-2-methylpropyl)-3-methyl-2,3,4,9-tetrahydro-1H-pyrido[3,4-b]indol-1-yl)pyrimidin-2-yl)-2-azaspiro[3.5]nonan-7-yl)methyl)-6,7-dihydropyrrolo[3,4-f]isoindole-1,3(2H,5H)-dione]",10 to 100 nM
2,"C[C@@H]1Cc2c([nH]c3ccccc23)[C@@H](c2cnc(N3CCC4(CC3)CC(CN3Cc5cc6c(cc5C3)C(=O)N(C3CCC(=O)NC3=O)C6=O)C4)nc2)N1CC(F)F (stereo partly drawn) [E 474, 6-((7-(5-((1R,3R)-2-(2,2-difluoroethyl)-3-methyl-2,3,4,9-tetrahydro-1H-pyrido[3,4-b]indol-1-yl)pyrimidin-2-yl)-7-azaspiro[3.5]nonan-2-yl)methyl)-2-(2,6-dioxopiperidin-3-yl)-6,7-dihydropyrrolo[3,4-f]isoindole-1,3(2H,5H)-dione]",10 to 100 nM
3,"C[C@@H]1Cc2c([nH]c3ccccc23)[C@@H](c2c(F)cc(C3=CCC4(CC3)CCN(C(=O)CN3Cc5cc6c(cc5C3)C(=O)N(C3CCC(=O)NC3=O)C6=O)CC4)cc2F)N1CC(F)F (stereo partly drawn) [E 476, 6-(2-(9-(4-((1R,3R)-2-(2,2-difluoroethyl)-3-methyl-2,3,4,9-tetrahydro-1H-pyrido[3,4-b]indol-1-yl)-3,5-difluorophenyl)-3-azaspiro[5.5]undec-8-en-3-yl)-2-oxoethyl)-2-(2,6-dioxopiperidin-3-yl)-6,7-dihydropyrrolo[3,4-f]isoindole-1,3(2H,5H)-dione]",10 to 100 nM
4,"C[C@@H]1Cc2c([nH]c3ccccc23)[C@@H](c2ccc(C3CCC4(CC3)CCN(C(=O)CN3Cc5cc6c(cc5C3)C(=O)N(C3CCC(=O)NC3=O)C6=O)CC4)cc2F)N1CC(F)F (stereo partly drawn) [E 479, 6-(2-(9-(4-((1R,3R)-2-(2,2-difluoroethyl)-3-methyl-2,3,4,9-tetrahydro-1H-pyrido[3,4-b]indol-1-yl)-3-fluorophenyl)-3-azaspiro[5.5]undecan-3-yl)-2-oxoethyl)-2-(2,6-dioxopiperidin-3-yl)-6,7-dihydropyrrolo[3,4-f]isoindole-1,3(2H,5H)-dione]",> 100 nM
5,"C[C@@H]1Cc2c([nH]c3ccccc23)[C@@H](c2c(F)cc(C3CCC4(CC3)CCN(C(=O)CN3Cc5cc6c(cc5C3)C(=O)N(C3CCC(=O)NC3=O)C6=O)CC4)cc2F)N1CC(F)F (stereo partly drawn) [E 480, 6-(2-(9-(4-((1R,3R)-2-(2,2-difluoroethyl)-3-methyl-2,3,4,9-tetrahydro-1H-pyrido[3,4-b]indol-1-yl)-3,5-difluorophenyl)-3-azaspiro[5.5]undecan-3-yl)-2-oxoethyl)-2-(2,6-dioxopiperidin-3-yl)-6,7-dihydropyrrolo[3,4-f]isoindole-1,3(2H,5H)-dione]",10 to 100 nM
6,"C[C@@H]1Cc2c([nH]c3ccccc23)[C@@H](c2ccc(C3=CCC(C(=O)N4CCC(N5Cc6cc7c(cc6C5)C(=O)N(C5CCC(=O)NC5=O)C7=O)CC4)CC3)cc2F)N1CC(C)(F)F (stereo partly drawn) [E 482, 6-(1-(4′-((1R,3R)-2-(2,2-difluoropropyl)-3-methyl-2,3,4,9-tetrahydro-1H-pyrido[3,4-b]indol-1-yl)-3′-fluoro-2,3,4,5-tetrahydro-[1,1′-biphenyl]-4-carbonyl)piperidin-4-yl)-2-(2,6-dioxopiperidin-3-yl)-6,7-dihydropyrrolo[3,4-f]isoindole-1,3(2H,5H)-dione]",> 100 nM
7,"C[C@@H]1Cc2c([nH]c3ccccc23)[C@@H](c2ncc(C3=CCC(C(=O)N4CCC(N5Cc6cc7c(cc6C5)C(=O)N(C5CCC(=O)NC5=O)C7=O)CC4)CC3)cc2F)N1CC(C)(F)F (stereo partly drawn) [E 483, 6-(1-(4-(6-((1S,3R)-2-(2,2-difluoropropyl)-3-methyl-2,3,4,9-tetrahydro-1H-pyrido[3,4-b]indol-1-yl)-5-fluoropyridin-3-yl)cyclohex-3-ene-1-carbonyl)piperidin-4-yl)-2-(2,6-dioxopiperidin-3-yl)-6,7-dihydropyrrolo[3,4-f]isoindole-1,3(2H,5H)-dione]",> 100 nM
8,"C[C@@H]1Cc2c([nH]c3ccccc23)[C@@H](c2ncc(C3=CCC(C(=O)N4CCC(N5Cc6cc7c(cc6C5)C(=O)N(C5CCC(=O)NC5=O)C7=O)CC4)CC3)cc2F)N1CC(C)(C)F (stereo partly drawn) [E 484, 2-(2,6-dioxopiperidin-3-yl)-6-(1-(4-(5-fluoro-6-((1S,3R)-2-(2-fluoro-2-methylpropyl)-3-methyl-2,3,4,9-tetrahydro-1H-pyrido[3,4-b]indol-1-yl)pyridin-3-yl)cyclohex-3-ene-1-carbonyl)piperidin-4-yl)-6,7-dihydropyrrolo[3,4-f]isoindole-1,3(2H,5H)-dione]",> 100 nM
9,"C[C@@H]1Cc2c([nH]c3ccccc23)[C@@H](c2c(F)cc(C3=CCC(C(=O)N4CCC(N5Cc6cc7c(cc6C5)C(=O)N(C5CCC(=O)NC5=O)C7=O)CC4)CC3)cc2F)N1CC1(F)CC1 (stereo partly drawn) [E 485, 6-(1-(3′,5′-difluoro-4′-((1R,3R)-2-((1-fluorocyclopropyl)methyl)-3-methyl-2,3,4,9-tetrahydro-1H-pyrido[3,4-b]indol-1-yl)-2,3,4,5-tetrahydro-[1,1′-biphenyl]-4-carbonyl)piperidin-4-yl)-2-(2,6-dioxopiperidin-3-yl)-6,7-dihydropyrrolo[3,4-f]isoindole-1,3(2H,5H)-dione]",> 100 nM

# The remaining lines, values ahead:
row,DC50,Structure (SMILES)
1,10 to 100 nM,"C[C@@H]1Cc2c([nH]c3ccccc23)[C@@H](c2cnc(N3CC4(CCC(CN5Cc6cc7c(cc6C5)C(=O)N(C5CCC(=O)NC5=O)C7=O)CC4)C3)nc2)N1CC(F)F (stereo partly drawn) [E 472, 6-((2-(5-((1R,3R)-2-(2,2-difluoroethyl)-3-methyl-2,3,4,9-tetrahydro-1H-pyrido[3,4-b]indol-1-yl)pyrimidin-2-yl)-2-azaspiro[3.5]nonan-7-yl)methyl)-2-(2,6-dioxopiperidin-3-yl)-6,7-dihydropyrrolo[3,4-f]isoindole-1,3(2H,5H)-dione]"
2,10 to 100 nM,"C[C@@H]1Cc2c([nH]c3ccccc23)[C@@H](c2cnc(N3CCC4(CC3)CC(CN3Cc5cc6c(cc5C3)C(=O)N(C3CCC(=O)NC3=O)C6=O)C4)nc2)N1CC(C)(C)F (stereo partly drawn) [E 473, 2-(2,6-dioxopiperidin-3-yl)-6-((7-(5-((1R,3R)-2-(2-fluoro-2-methylpropyl)-3-methyl-2,3,4,9-tetrahydro-1H-pyrido[3,4-b]indol-1-yl)pyrimidin-2-yl)-7-azaspiro[3.5]nonan-2-yl)methyl)-6,7-dihydropyrrolo[3,4-f]isoindole-1,3(2H,5H)-dione]"
3,10 to 100 nM,"C[C@@H]1Cc2c([nH]c3ccccc23)[C@@H](c2ccc(C3CCC(C(=O)N4CCC(N5Cc6cc7c(cc6C5)C(=O)N(C5CCC(=O)NC5=O)C7=O)CC4)CC3)c(F)c2)N1CC(F)F (stereo partly drawn) [E 475, 6-(1-(4-(4-((1R,3R)-2-(2,2-difluoroethyl)-3-methyl-2,3,4,9-tetrahydro-1H-pyrido[3,4-b]indol-1-yl)-2-fluorophenyl)cyclohexane-1-carbonyl)piperidin-4-yl)-2-(2,6-dioxopiperidin-3-yl)-6,7-dihydropyrrolo[3,4-f]isoindole-1,3(2H,5H)-dione]"
4,> 100 nM,"C[C@@H]1Cc2c([nH]c3ccccc23)[C@@H](c2ccc(C3=CCC4(CC3)CCN(C(=O)CN3Cc5cc6c(cc5C3)C(=O)N(C3CCC(=O)NC3=O)C6=O)CC4)cc2F)N1CC(F)F (stereo partly drawn) [E 477, 6-(2-(9-(4-((1R,3R)-2-(2,2-difluoroethyl)-3-methyl-2,3,4,9-tetrahydro-1H-pyrido[3,4-b]indol-1-yl)-3-fluorophenyl)-3-azaspiro[5.5]undec-8-en-3-yl)-2-oxoethyl)-2-(2,6-dioxopiperidin-3-yl)-6,7-dihydropyrrolo[3,4-f]isoindole-1,3(2H,5H)-dione]"
5,> 100 nM,"C[C@@H]1Cc2c([nH]c3ccccc23)[C@@H](c2ccc(C3=CCC4(CC3)CCN(C(=O)CN3Cc5cc6c(cc5C3)C(=O)N(C3CCC(=O)NC3=O)C6=O)CC4)cc2)N1CC(F)F (stereo partly drawn) [E 478, 6-(2-(9-(4-((1R,3R)-2-(2,2-difluoroethyl)-3-methyl-2,3,4,9-tetrahydro-1H-pyrido[3,4-b]indol-1-yl)phenyl)-3-azaspiro[5.5]undec-8-en-3-yl)-2-oxoethyl)-2-(2,6-dioxopiperidin-3-yl)-6,7-dihydropyrrolo[3,4-f]isoindole-1,3(2H,5H)-dione]"
6,10 to 100 nM,"C[C@@H]1Cc2c([nH]c3ccccc23)[C@@H](c2ccc(C3=CCC(C(=O)N4CCC(N5Cc6cc7c(cc6C5)C(=O)N(C5CCC(=O)NC5=O)C7=O)CC4)CC3)cc2F)N1CC(C)(C)F (stereo partly drawn) [E 481, 2-(2,6-dioxopiperidin-3-yl)-6-(1-(3′-fluoro-4′-((1R,3R)-2-(2-fluoro-2-methylpropyl)-3-methyl-2,3,4,9-tetrahydro-1H-pyrido[3,4-b]indol-1-yl)-2,3,4,5-tetrahydro-[1,1′-biphenyl]-4-carbonyl)piperidin-4-yl)-6,7-dihydropyrrolo[3,4-f]isoindole-1,3(2H,5H)-dione]"
